Columns and labels:
[1] = tested on: L1210; experiment: Antiproliferative activity against mouse L1210 cells after 72 hrs by phosphatase assay; assay type: functional, cell-based; conditions: L1210, 72 h
[2] = Cytotoxicity against human HCT116/VM46 cells assessed as reduction in cell viability after 72 hrs by phosphatase assay; assay type: cell-based; conditions: HCT-116/VM46, 72 h
[3] = tested on: HCT-116; experiment: Antiproliferative activity against human HCT116 cells after 72 hrs by phosphatase assay; assay type: functional, cell-based; conditions: HCT-116, 72 h

With `CC[C@]1(NC(=O)c2cccc(OC)c2)C[C@H]2CN(CCc3c([nH]c4ccccc34)[C@@](C(=O)OC)(c3cc4c(cc3OC)N(C)[C@H]3[C@@](O)(C(=O)OC)[C@H](OC(C)=O)[C@]5(CC)C=CCN6CC[C@]43[C@@H]65)C2)C1` the IC50 [1] was 0.6 nM, the IC50 [2] was 8.7 nM and the IC50 [3] was 0.8 nM.
For `CCc1cc(CC)cc(C(=O)N[C@@]2(CC)C[C@H]3CN(CCc4c([nH]c5ccccc45)[C@@](C(=O)OC)(c4cc5c(cc4OC)N(C)[C@H]4[C@@](O)(C(=O)OC)[C@H](OC(C)=O)[C@]6(CC)C=CCN7CC[C@]54[C@@H]76)C3)C2)c1`, the IC50 [1] was 4.2 nM, the IC50 [2] was 66 nM and the IC50 [3] was 6.4 nM.
`CC[C@]1(NC(=O)c2ccc(OC)c(F)c2)C[C@H]2CN(CCc3c([nH]c4ccccc34)[C@@](C(=O)OC)(c3cc4c(cc3OC)N(C)[C@H]3[C@@](O)(C(=O)OC)[C@H](OC(C)=O)[C@]5(CC)C=CCN6CC[C@]43[C@@H]65)C2)C1` showed an IC50 [1] of 0.6 nM, an IC50 [2] of 30 nM and an IC50 [3] of 0.6 nM.
In the case of `CC[C@]1(N)C[C@H]2CN(CCc3c([nH]c4ccccc34)[C@@](C(=O)OC)(c3cc4c(cc3OC)N(C)[C@H]3[C@@](O)(C(=O)OC)[C@H](OC(C)=O)[C@]5(CC)C=CCN6CC[C@]43[C@@H]65)C2)C1`, the IC50 [2] is reported as greater than 10000 nM.
With `CC[C@]1(NC(=O)c2csc3ccccc23)C[C@H]2CN(CCc3c([nH]c4ccccc34)[C@@](C(=O)OC)(c3cc4c(cc3OC)N(C)[C@H]3[C@@](O)(C(=O)OC)[C@H](OC(C)=O)[C@]5(CC)C=CCN6CC[C@]43[C@@H]65)C2)C1` the IC50 [1] was 5.2 nM, the IC50 [2] was 20 nM and the IC50 [3] was 5.7 nM.
`CC[C@]1(NS(=O)(=O)c2cccc3c(N(C)C)cccc23)C[C@H]2CN(CCc3c([nH]c4ccccc34)[C@@](C(=O)OC)(c3cc4c(cc3OC)N(C)[C@H]3[C@@](O)(C(=O)OC)[C@H](OC(C)=O)[C@]5(CC)C=CCN6CC[C@]43[C@@H]65)C2)C1` gave an IC50 [1] of 30 nM, an IC50 [2] of 60 nM and an IC50 [3] of 30 nM.
For `CC[C@]1(NS(=O)(=O)c2ccc(C)cc2)C[C@H]2CN(CCc3c([nH]c4ccccc34)[C@@](C(=O)OC)(c3cc4c(cc3OC)N(C)[C@H]3[C@@](O)(C(=O)OC)[C@H](OC(C)=O)[C@]5(CC)C=CCN6CC[C@]43[C@@H]65)C2)C1`, the IC50 [1] was 40 nM, the IC50 [2] was 330 nM and the IC50 [3] was 30 nM.
`CC[C@]1(NC(=O)c2ccoc2)C[C@H]2CN(CCc3c([nH]c4ccccc34)[C@@](C(=O)OC)(c3cc4c(cc3OC)N(C)[C@H]3[C@@](O)(C(=O)OC)[C@H](OC(C)=O)[C@]5(CC)C=CCN6CC[C@]43[C@@H]65)C2)C1` gave an IC50 [1] of 0.7 nM, an IC50 [2] of 6.3 nM and an IC50 [3] of 0.6 nM.
Work on `CC[C@]1(O)C[C@H]2CN(CCc3c([nH]c4ccc(F)cc34)[C@@](C(=O)OC)(c3cc4c(cc3OC)N(C)[C@H]3[C@@](O)(C(=O)OC)[C@H](OC(C)=O)[C@]5(CC)C=CCN6CC[C@]43[C@@H]65)C2)C1` yielded an IC50 [1] of 0.6 nM, an IC50 [2] of 30 nM and an IC50 [3] of 0.7 nM.
For `CC[C@]1(NC(=O)C2CCN(C(=O)OC(C)(C)C)CC2)C[C@H]2CN(CCc3c([nH]c4ccccc34)[C@@](C(=O)OC)(c3cc4c(cc3OC)N(C)[C@H]3[C@@](O)(C(=O)OC)[C@H](OC(C)=O)[C@]5(CC)C=CCN6CC[C@]43[C@@H]65)C2)C1`, the IC50 [1] was 50 nM, the IC50 [2] was 500 nM and the IC50 [3] was 45 nM.
`CC[C@]1(NS(=O)(=O)c2ccccc2)C[C@H]2CN(CCc3c([nH]c4ccccc34)[C@@](C(=O)OC)(c3cc4c(cc3OC)N(C)[C@H]3[C@@](O)(C(=O)OC)[C@H](OC(C)=O)[C@]5(CC)C=CCN6CC[C@]43[C@@H]65)C2)C1` showed an IC50 [1] of 45 nM, an IC50 [2] of 680 nM and an IC50 [3] of 50 nM.
In the case of `CC[C@]1(NC(=O)c2ccc(OC(F)(F)F)cc2)C[C@H]2CN(CCc3c([nH]c4ccccc34)[C@@](C(=O)OC)(c3cc4c(cc3OC)N(C)[C@H]3[C@@](O)(C(=O)OC)[C@H](OC(C)=O)[C@]5(CC)C=CCN6CC[C@]43[C@@H]65)C2)C1`, the IC50 [1] is reported as 5.9 nM, the IC50 [2] is reported as 8.4 nM and the IC50 [3] is reported as 4.4 nM.
`CC[C@]1(NC(=O)c2ccc(OC)cc2)C[C@H]2CN(CCc3c([nH]c4ccccc34)[C@@](C(=O)OC)(c3cc4c(cc3OC)N(C)[C@H]3[C@@](O)(C(=O)OC)[C@H](OC(C)=O)[C@]5(CC)C=CCN6CC[C@]43[C@@H]65)C2)C1` showed an IC50 [1] of 0.25 nM, an IC50 [2] of 7.6 nM and an IC50 [3] of 0.3 nM.
`CCOc1ccc(C(=O)N[C@@]2(CC)C[C@H]3CN(CCc4c([nH]c5ccccc45)[C@@](C(=O)OC)(c4cc5c(cc4OC)N(C)[C@H]4[C@@](O)(C(=O)OC)[C@H](OC(C)=O)[C@]6(CC)C=CCN7CC[C@]54[C@@H]76)C3)C2)cc1OCC` showed an IC50 [1] of 0.4 nM, an IC50 [2] of 6 nM and an IC50 [3] of 0.5 nM.
Molecule `CC[C@]1(NC(=O)c2ccc(OC(F)(F)F)cc2)C[C@H]2CN(CCc3c([nH]c4ccc(F)cc34)[C@@](C(=O)OC)(c3cc4c(cc3OC)N(C)[C@H]3[C@@](O)(C(=O)OC)[C@H](OC(C)=O)[C@]5(CC)C=CCN6CC[C@]43[C@@H]65)C2)C1` has an IC50 [1] of 0.6 nM, an IC50 [2] of 1 nM and an IC50 [3] of 0.7 nM.
Molecule `CC[C@]1(NC(=O)c2nc3ccccc3s2)C[C@H]2CN(CCc3c([nH]c4ccccc34)[C@@](C(=O)OC)(c3cc4c(cc3OC)N(C)[C@H]3[C@@](O)(C(=O)OC)[C@H](OC(C)=O)[C@]5(CC)C=CCN6CC[C@]43[C@@H]65)C2)C1` has an IC50 [1] of 180 nM, an IC50 [2] of 470 nM and an IC50 [3] of 80 nM.
`CC[C@]1(NC(=O)C2CCSCC2)C[C@H]2CN(CCc3c([nH]c4ccccc34)[C@@](C(=O)OC)(c3cc4c(cc3OC)N(C)[C@H]3[C@@](O)(C(=O)OC)[C@H](OC(C)=O)[C@]5(CC)C=CCN6CC[C@]43[C@@H]65)C2)C1` gave an IC50 [1] of 460 nM, an IC50 [2] of 5200 nM and an IC50 [3] of 450 nM.
Molecule `CC[C@]1(NC(=O)/C=C/c2cccnc2)C[C@H]2CN(CCc3c([nH]c4ccccc34)[C@@](C(=O)OC)(c3cc4c(cc3OC)N(C)[C@H]3[C@@](O)(C(=O)OC)[C@H](OC(C)=O)[C@]5(CC)C=CCN6CC[C@]43[C@@H]65)C2)C1` has an IC50 [1] of 5.9 nM, an IC50 [2] of 320 nM and an IC50 [3] of 5.7 nM.
For `CC[C@]1(NC(=O)c2ccc3ccncc3c2)C[C@H]2CN(CCc3c([nH]c4ccccc34)[C@@](C(=O)OC)(c3cc4c(cc3OC)N(C)[C@H]3[C@@](O)(C(=O)OC)[C@H](OC(C)=O)[C@]5(CC)C=CCN6CC[C@]43[C@@H]65)C2)C1`, the IC50 [1] was 0.4 nM, the IC50 [2] was 3.7 nM and the IC50 [3] was 0.4 nM.
For `CC[C@]1(NC(=O)c2ccc3nccnc3c2)C[C@H]2CN(CCc3c([nH]c4ccccc34)[C@@](C(=O)OC)(c3cc4c(cc3OC)N(C)[C@H]3[C@@](O)(C(=O)OC)[C@H](OC(C)=O)[C@]5(CC)C=CCN6CC[C@]43[C@@H]65)C2)C1`, the IC50 [1] was 0.6 nM, the IC50 [2] was 7.5 nM and the IC50 [3] was 0.6 nM.
Work on `CC[C@]1(NC(=O)C2CCOCC2)C[C@H]2CN(CCc3c([nH]c4ccccc34)[C@@](C(=O)OC)(c3cc4c(cc3OC)N(C)[C@H]3[C@@](O)(C(=O)OC)[C@H](OC(C)=O)[C@]5(CC)C=CCN6CC[C@]43[C@@H]65)C2)C1` yielded an IC50 [1] of 70 nM, an IC50 [2] of 3500 nM and an IC50 [3] of 35 nM.
Work on `CCC(=O)N[C@@]1(CC)C[C@H]2CN(CCc3c([nH]c4ccccc34)[C@@](C(=O)OC)(c3cc4c(cc3OC)N(C)[C@H]3[C@@](O)(C(=O)OC)[C@H](OC(C)=O)[C@]5(CC)C=CCN6CC[C@]43[C@@H]65)C2)C1` yielded an IC50 [1] of 60 nM, an IC50 [2] of 2100 nM and an IC50 [3] of 60 nM.
`CCC(C)c1ccc(C(=O)N[C@@]2(CC)C[C@H]3CN(CCc4c([nH]c5ccccc45)[C@@](C(=O)OC)(c4cc5c(cc4OC)N(C)[C@H]4[C@@](O)(C(=O)OC)[C@H](OC(C)=O)[C@]6(CC)C=CCN7CC[C@]54[C@@H]76)C3)C2)cc1` (some centres undefined) gave an IC50 [1] of 25 nM, an IC50 [2] of 65 nM and an IC50 [3] of 15 nM.
For `CC[C@]1(NC(=O)c2ccc3scnc3c2)C[C@H]2CN(CCc3c([nH]c4ccccc34)[C@@](C(=O)OC)(c3cc4c(cc3OC)N(C)[C@H]3[C@@](O)(C(=O)OC)[C@H](OC(C)=O)[C@]5(CC)C=CCN6CC[C@]43[C@@H]65)C2)C1`, the IC50 [1] was 0.6 nM, the IC50 [2] was 25 nM and the IC50 [3] was 0.7 nM.
Work on `CC[C@]1(NC(=O)c2ccc(CN)cc2)C[C@H]2CN(CCc3c([nH]c4ccccc34)[C@@](C(=O)OC)(c3cc4c(cc3OC)N(C)[C@H]3[C@@](O)(C(=O)OC)[C@H](OC(C)=O)[C@]5(CC)C=CCN6CC[C@]43[C@@H]65)C2)C1` yielded an IC50 [1] of 25 nM, an IC50 [2] of 470 nM and an IC50 [3] of 3.5 nM.
In the case of `CC[C@]1(NC(=O)c2ccc(N)c(C)c2)C[C@H]2CN(CCc3c([nH]c4ccccc34)[C@@](C(=O)OC)(c3cc4c(cc3OC)N(C)[C@H]3[C@@](O)(C(=O)OC)[C@H](OC(C)=O)[C@]5(CC)C=CCN6CC[C@]43[C@@H]65)C2)C1`, the IC50 [1] is reported as 0.6 nM, the IC50 [2] is reported as 7.8 nM and the IC50 [3] is reported as 0.6 nM.
With `CC[C@]1(NC(=O)c2cccc(C(F)(F)F)c2)C[C@H]2CN(CCc3c([nH]c4ccccc34)[C@@](C(=O)OC)(c3cc4c(cc3OC)N(C)[C@H]3[C@@](O)(C(=O)OC)[C@H](OC(C)=O)[C@]5(CC)C=CCN6CC[C@]43[C@@H]65)C2)C1` the IC50 [1] was 6.2 nM, the IC50 [2] was 40 nM and the IC50 [3] was 6.4 nM.
For `CC[C@]1(NC(=O)c2ccc(C)c(NC(=O)OC(C)(C)C)c2)C[C@H]2CN(CCc3c([nH]c4ccccc34)[C@@](C(=O)OC)(c3cc4c(cc3OC)N(C)[C@H]3[C@@](O)(C(=O)OC)[C@H](OC(C)=O)[C@]5(CC)C=CCN6CC[C@]43[C@@H]65)C2)C1`, the IC50 [1] was 6 nM, the IC50 [2] was 90 nM and the IC50 [3] was 7.1 nM.
`CC[C@]1(N=[N+]=[N-])C[C@H]2CN(CCc3c([nH]c4ccccc34)[C@@](C(=O)OC)(c3cc4c(cc3OC)N(C)[C@H]3[C@@](O)(C(=O)OC)[C@H](OC(C)=O)[C@]5(CC)C=CCN6CC[C@]43[C@@H]65)C2)C1` gave an IC50 [2] of 5500 nM.
In the case of `CC[C@@H]1C[C@H]2CN(CCc3c([nH]c4ccccc34)[C@@](C(=O)OC)(c3cc4c(cc3OC)N(C)[C@H]3[C@@](O)(C(=O)OC)[C@H](OC(C)=O)[C@]5(CC)C=CCN6CC[C@]43[C@@H]65)C2)C1` [ROSEAMINE], the IC50 [2] is reported as 600 nM.

Source: ChEMBL document CHEMBL4017512 (J Med Chem, 2017)
